Reference: US11332464B2, “Inhibitors of lysine gingipain” (priority 2014, dated 2022)
pIC50: −log10 of the molar value. “And” between values parts separate entries of the source, which are not always exact repeats. Equal values may be shown once. “Also recorded” adds a separate entry of the source. Read-outs that look alike come from different tables or passages of the source.

Columns and labels:
[1] = target: Kgp (Porphyromonas gingivalis, UniProt P72197); experiment: Lysine gingipain (Kgp) fluorogenic inhibition assay; assay type: biochemical
Description: The capacities of compounds of the present invention to inhibit the activity of lysine gingipain were measured in a fluorogenic assay similar to those described in Barret Biochemical Journal. 1980, 187(3), 909. The specific assay conditions were as follows. Buffer: pH=7.5, 100 mM Tris-HCl, 75 mM NaCl, 2.5 mM CaCl2, 10 mM cysteine, 1% DMSO after all additions. Protein: 0.1 nM Kgp, isolated from culture of Porphyromonas gingivalis, as described in Pike et al. J. Biol. Chem. 1994, 269(1), 406, and Potempa and Nguyen. Current Protocols in Protein Science. 2007, 21.20.1-21.20.27. Fluorogenic substrate: 10 uM Z-His-Glu-Lys-MCA. Time=90 minutes. Temperature=37° C. Each compound: 10 concentrations, starting at either 100 uM or 100 nM, with lower concentrations generated by serial 3-fold dilutions. By testing a range of concentrations for each compound, the concentration required to inhibit the activity of lysine gingipain by 50% (the “IC50”) was determined. Under the described assay conditions, signal-to-noise was excellent, and Z factor was greater than 0.6.

[2] = test system: differentiated SH-SY5Y neuroblastoma cells; experiment: Gingipain-induced death of differentiated SH-SY5Y cells; assay type: cell-based; conditions: 100 nM Kgp and/or RgpB for 24 hours
Description: SH-SY5Y neuroblastoma cells were cultured and differentiated in the presence of 5 uM retinoic acid based on established methods [Saberi S., et al. Cell Mol Neurobiol 2013. 33: 747-751]. Differentiation into neuronal cells was verified by observation of neurite outgrowth. The differentiated cells were exposed to 100 nM Kgp and/or RgpB for 24 hours, in the presence or absence of Kgp inhibitors. Results were recorded using a digital microscope camera (FIG. 1C, FIG. 2C). Gingipains are toxic to cells while COR compounds prevent the cytotoxicity.

[3] = test system: SHSY5Y cells; experiment: P. gingivalis-induced toxicity in SHSY5Y cells; assay type: cell-based; conditions: in vitro, compared to moxifloxacin
[4] = Kgp IC50 average, 0.1 nM Kgp, 10 uM Z-His-Glu-Lys-MCA, 90 minutes, 37° C.
[5] = read-out: Kgp IC50 average, 0.1 nM Kgp, 10 uM Z-His-Glu-Lys-MCA, 90 minutes, 37° C.

NCCCC[C@H](NC(=O)C1CCOCC1)C(=O)c1nc2ccccc2s1 [Compound 22, N-[(1S)-5-amino-1-(1,3-benzothiazole-2-carbonyl)pentyl]tetrahydropyran-4-carboxamide]
pIC50 [1, 4]: 7.60 to 8.00

NCCCC[C@H](NC(=O)c1ccccc1)C(=O)c1nc2ccccc2s1 [Compound 1, N-[(1S)-5-amino-1-(1,3-benzothiazole-2-carbonyl)pentyl]benzamide]
pIC50 [1, 4]: 7.00 to 7.30 and 7.30 to 7.60 | prevention of gingipain-induced death of differentiated SHSY-5Y cells [2]: effective at preventing cell death; also recorded: prevents gingipain-induced death

NCCCC[C@H](NC(=O)C1CCCc2ccccc21)C(=O)c1nc2ccccc2s1 (stereo partly drawn) [Compound 31, N-[(1S)-5-amino-1-(1,3-benzothiazole-2-carbonyl)pentyl]tetralin-1-carboxamide]
pIC50 [1, 4]: 7.60 to 8.00

NCCCCC(NC(=O)[C@@H]1CCCN(C(=O)CCc2ccccc2)C1)C(=O)c1nc2ccccc2s1 (single isomer, unassigned) [Compound 15]
pIC50 [1, 5]: 8.00 to 9.00

NCCCC[C@H](NC(=O)c1cncs1)C(=O)c1nc2ccccc2s1 [Compound 38, N-[(1S)-5-amino-1-(1,3-benzothiazole-2-carbonyl)pentyl]thiazole-5-carboxamide]
pIC50 [1, 4]: 7.60 to 8.00

NCCCC[C@H](NC(=O)C1CCCOC1)C(=O)c1nc2ccccc2s1 (single isomer, unassigned) [Compound 19]
pIC50 [1, 5]: 7.60 to 8.00

NCCCC[C@H](NC(=O)C1CCCOC1)C(=O)c1nc2ccccc2s1 (single isomer, unassigned) [Compound 18]
pIC50 [1, 4]: 7.60 to 8.00

NCCCC[C@H](NC(=O)c1ccncc1)C(=O)c1nc2ccccc2s1 [Compound 13, N-[(1S)-5-amino-1-(1,3-benzothiazole-2-carbonyl)pentyl]pyridine-4-carboxamide]
pIC50 [1, 4]: 7.30 to 7.60

NCCCC[C@H](NC(=O)C1CCCO1)C(=O)c1nc2ccccc2s1 (single isomer, unassigned) [Compound 34]
pIC50 [1, 4]: 8.00 to 9.00

CC(=O)N1CCC[C@@H](C(=O)N[C@H](CCCCN)C(=O)c2nc3ccccc3s2)C1 [Compound 11, (3R)-1-acetyl-N-[(1R)-5-amino-1-(1,3-benzothiazole-2-carbonyl)pentyl]piperidine-3-carboxamide]
pIC50 [1, 4]: 8.00 to 9.00

NCCCC[C@H](NC(=O)c1nccs1)C(=O)c1nc2ccccc2s1 [Compound 39, N-[(1S)-5-amino-1-(1,3-benzothiazole-2-carbonyl)pentyl]thiazole-2-carboxamide]
pIC50 [1, 4]: 7.00 to 7.30

NCCCC[C@H](NC(=O)C1CCCCO1)C(=O)c1nc2ccccc2s1 (single isomer, unassigned) [Compound 26]
pIC50 [1, 5]: 7.30 to 7.60

NCCCC[C@H](NC(=O)C1CCCC1)C(=O)c1nccs1 [Compound 42, N-[(1S)-5-amino-1-(thiazole-2-carbonyl)pentyl]cyclopentanecarboxamide]
pIC50 [1, 4]: 7.00 to 7.30

CC1(C(=O)N[C@@H](CCCCN)C(=O)c2nc3ccccc3s2)CCCCC1 [Compound 33, N-[(1S)-5-amino-1-(1,3-benzothiazole-2-carbonyl)pentyl]-1-methyl-cyclohexanecarboxamide]
pIC50 [1, 4]: 8.00 to 9.00

NCCCC[C@H](NC(=O)C1CCCCC1)C(=O)c1nc2ccccc2s1 [Compound 2, N-[(1S)-5-amino-1-(1,3-benzothiazole-2-carbonyl)pentyl]cyclohexanecarboxamide]
pIC50 ([1]; Kgp IC50, figure legend): 8.00 to 9.00 | pIC50 [1, 4]: 8.00 to 9.00 and 7.60 to 8.00 | prevention of gingipain-induced death of differentiated SHSY-5Y cells [2]: effective at preventing cell death; also recorded: more effective

NCCCC[C@H](NC(=O)C1CCCC1)C(=O)c1ccccn1 [Compound 44, N-[(1S)-5-amino-1-(pyridine-2-carbonyl)pentyl]cyclopentanecarboxamide]
pIC50 [1, 4]: < 6.60

CC(=O)N1CCC[C@H](C(=O)N[C@@H](CCCCN)C(=O)c2nc3ccccc3s2)C1 [Compound 8, (3S)-1-acetyl-N-[(1S)-5-amino-1-(1,3-benzothiazole-2-carbonyl)pentyl]piperidine-3-carboxamide]
pIC50 [1, 4]: 7.60 to 8.00

NCCCC[C@H](NC(=O)C1CCc2ccccc2C1)C(=O)c1nc2ccccc2s1 (stereo partly drawn) [Compound 32, N-[(1S)-5-amino-1-(1,3-benzothiazole-2-carbonyl)pentyl]tetralin-2-carboxamide]
pIC50 [1, 4]: 8.00 to 9.00

NCCCC[C@H](NC(=O)c1cccc(=O)[nH]1)C(=O)c1nc2ccccc2s1 [Compound 40, N-[(1S)-5-amino-1-(1,3-benzothiazole-2-carbonyl)pentyl]-6-oxo-1H-pyridine-2-carboxamide]
pIC50 [1, 4]: 7.30 to 7.60

COC1(C(=O)N[C@@H](CCCCN)C(=O)c2nc3ccccc3s2)CCCCC1 [Compound 41, (S)—N-(6-amino-1-(benzo[d]thiazol-2-yl)-1-oxohexan-2-yl)-1-methoxycyclohexanecarboxamide]
pIC50 [1, 4]: 7.60 to 8.00

CC(=O)N1CCC[C@@H](C(=O)N[C@@H](CCCCN)C(=O)c2nc3ccccc3s2)C1 [Compound 9, (3R)-1-acetyl-N-[(1S)-5-amino-1-(1,3-benzothiazole-2-carbonyl)pentyl]piperidine-3-carboxamide]
pIC50 [1, 4]: 8.00 to 9.00

NCCCC[C@H](NC(=O)c1ccccn1)C(=O)c1nc2ccccc2s1 [Compound 12, N-[(1S)-5-amino-1-(1,3-benzothiazole-2-carbonyl)pentyl]pyridine-2-carboxamide]
pIC50 [1, 4]: 7.00 to 7.30

NCCCCC(NC(=O)[C@@H]1CCCN(C(=O)CCc2ccccc2)C1)C(=O)c1nc2ccccc2s1 (single isomer, unassigned) [Compound 14]
pIC50 [1, 4]: 8.00 to 9.00

NCCCC[C@H](NC(=O)c1cccnc1)C(=O)c1nc2ccccc2s1 [Compound 30, N-[(1S)-5-amino-1-(1,3-benzothiazole-2-carbonyl)pentyl]pyridine-3-carboxamide]
pIC50 [1, 4]: 7.30 to 7.60

NCCCC[C@H](NC(=O)C1CCCC1)C(=O)c1nc2ccccc2s1 [Compound 24, N-[(1S)-5-amino-1-(1,3-benzothiazole-2-carbonyl)pentyl]cyclo-pentanecarboxamide]
pIC50 [1, 4]: 8.00 to 9.00

NCCCC[C@H](NC(=O)[C@@H]1CCCN(C(=O)CCc2ccccc2)C1)C(=O)c1nc2ccccc2s1 [Compound 4, (3R)—N-[(1S)-5-amino-1-(1,3-benzothiazole-2-carbonyl)pentyl]-1-(3-phenylpropanoyl)piperidine-3-carboxamide]
pIC50 ([1]; Kgp IC50, figure legend): 8.00 to 9.00 | pIC50 [1, 4]: 8.00 to 9.00 | prevention of gingipain-induced death of differentiated SHSY-5Y cells [2]: prevents gingipain-induced death | prevention of gingipain-induced death of differentiated SHSY-5Y cells ([2]; listed as 2-(N—[N-(3-phenylpropanoyl)-(R)-nipecotinyl]-(R)-lysinyl)-benzothiazole): effective at preventing cell death

NCCCC[C@H](NC(=O)C1CCCO1)C(=O)c1nc2ccccc2s1 (single isomer, unassigned) [Compound 35]
pIC50 [1, 5]: 8.00 to 9.00

NCCCC[C@H](NC(=O)C1CCCC1)C(=O)COc1c(F)c(F)cc(F)c1F [Compound 43, N-[(1S)-5-amino-1-[2-(2,3,5,6-tetrafluorophenoxy)acetyl]pentyl]cyclo-pentanecarboxamide]
protection of SHSY5Y cells from P. gingivalis-induced toxicity [3]: protects SHSY5Y cells | pIC50 [1, 4]: > 9.00 | Kgp IC50 (in words) ([1]; irreversible covalent inhibitor): sub-nanomolar

NCCCC[C@H](NC(=O)OCc1ccccc1)C(=O)c1nc2ccccc2s1 [Compound 23, Benzyl-N-[(1S)-5-amino-1-(1,3-benzothiazole-2-carbonyl)pentyl]carbamate]
pIC50 [1, 4]: 6.60 to 7.00

CC(=O)N1CCOC(C(=O)N[C@@H](CCCCN)C(=O)c2nc3ccccc3s2)C1 (stereo partly drawn) [Compound 29, 4-acetyl-N-[(1S)-5-amino-1-(1,3-benzothiazole-2-carbonyl)pentyl]morpholine-2-carboxamide]
pIC50 [1, 4]: 7.60 to 8.00

NCCCC[C@H](NC(=O)[C@H]1CCCN(C(=O)CCc2ccccc2)C1)C(=O)c1nc2ccccc2s1 [Compound 3, (3S)—N-[(1S)-5-amino-1-(1,3-benzothiazole-2-carbonyl)pentyl]-1-(3-phenylpropanoyl)piperidine-3-carboxamide]
pIC50 ([1]; Kgp IC50, figure legend): 7.60 to 8.00 | pIC50 [1, 4]: 7.60 to 8.00 | prevention of gingipain-induced death of differentiated SHSY-5Y cells [2]: does not

NCCCC[C@H](NC(=O)C1CCCCO1)C(=O)c1nc2ccccc2s1 (single isomer, unassigned) [Compound 25]
pIC50 [1, 4]: 7.30 to 7.60

CC(=O)N1CCC[C@H](C(=O)N[C@H](CCCCN)C(=O)c2nc3ccccc3s2)C1 [Compound 10, (3S)-1-acetyl-N-[(1R)-5-amino-1-(1,3-benzothiazole-2-carbonyl)pentyl]piperidine-3-carboxamide]
pIC50 [1, 4]: 7.60 to 8.00

NCCCC[C@H](NC(=O)c1ccccc1C(F)(F)F)C(=O)c1nc2ccccc2s1 [Compound 7, N-[(1S)-5-amino-1-(1,3-benzothiazole-2-carbonyl)pentyl]-2-(trifluoromethyl)benzamide]
pIC50 [1, 4]: 7.30 to 7.60
